Where “and” joins values, the source holds several entries; their conditions need not be identical. Identical values can stand only once. Counter-ions that a name gives are not always drawn. Like-named read-outs stand apart in the source and are kept apart here.
Key:
[1] = target: T1, recombinant human AChE (Homo sapiens, UniProt P22303); assay: biochemical
[2] = target: AChE in SH-SY5Y cells (Homo sapiens, UniProt P22303); assay: cell-based
[3] = target: T1, recombinant human AChE

AChE in SH-SY5Y cells, sequence (P22303 32-614): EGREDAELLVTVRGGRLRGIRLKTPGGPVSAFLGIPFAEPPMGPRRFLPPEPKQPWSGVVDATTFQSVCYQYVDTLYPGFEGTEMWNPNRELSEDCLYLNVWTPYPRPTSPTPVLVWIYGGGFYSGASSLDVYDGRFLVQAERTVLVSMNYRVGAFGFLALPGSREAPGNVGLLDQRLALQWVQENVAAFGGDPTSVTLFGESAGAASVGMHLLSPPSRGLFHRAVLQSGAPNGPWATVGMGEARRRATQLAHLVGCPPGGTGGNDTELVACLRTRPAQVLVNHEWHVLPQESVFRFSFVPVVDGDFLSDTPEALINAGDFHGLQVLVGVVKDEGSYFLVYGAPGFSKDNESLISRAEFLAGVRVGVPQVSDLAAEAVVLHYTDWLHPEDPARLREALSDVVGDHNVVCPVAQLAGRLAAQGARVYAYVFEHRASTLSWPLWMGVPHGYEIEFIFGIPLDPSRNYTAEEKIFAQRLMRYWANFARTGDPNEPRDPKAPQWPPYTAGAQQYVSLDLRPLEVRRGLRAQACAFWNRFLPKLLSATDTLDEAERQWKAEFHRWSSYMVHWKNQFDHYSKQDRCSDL
T1 sequence (P22303 32-614): as above

| Compound | AChE inhibition (result in words) [1] | CC-v2 (curve classes) [2] | IC50 ([2]; read-out: IC50) | CC-v2 (curve classes) [1] | Efficacy [1] | IC50 ([1]; read-out: IC50) | CC-v2 (curve classes) [3] | Efficacy [3] | IC50 [3] [µM] | IC50 ([2]; IC50 (uM)) | IC50 ([1]; IC50 (uM)) |
| --- | --- | --- | --- | --- | --- | --- | --- | --- | --- | --- | --- |
| CC1(C)Cc2cccc(O)c2O1 [2,3-Dihydro-2,2-dimethyl-7-benzofuranol, reference compound] | inactive |  |  |  |  |  |  |  |  |  |  |
| Nc1ccc(N)c(Cl)c1.O=S(=O)(O)O [2-Chloro-1,4-diaminobenzene sulfate] |  | -1.1 and -2.1 | 22.4 µM and 20 µM | -1.1 | -68.64 | 8.94 µM | 4 | -13.066 |  |  |  |
| CCN1C(=CC=Cc2sc3ccccc3[n+]2CC)Sc2ccccc21.[I-] [3,3'-Diethylthiacarbocyanine iodide] |  | -2.1 and -2.2 | 10.7 µM and 15.1 µM | -3 | -76.506 | 19 µM | 4 | 0 |  |  |  |
| Cc1ccc2c(c1)OCC(=O)CO2 [7-Methyl-2H-1,5-benzodioxepin-3(4H)-one] |  | -2.1 | 35.6 µM and 31.7 µM | -2.2 | -48.628 | 79.6 µM | 4 | 0 |  |  |  |
| C[C@H]1[C@@H]2Cc3ccc(O)cc3[C@@]1(C)CCN2C.C[C@H]1[C@@H]2Cc3ccc(O)cc3[C@@]1(C)CCN2C.O=C(O)/C=C/C(=O)O [(+)-Metazocine fumarate (2:1)] |  | -1.1 | 8.52 µM and 10.7 µM and 15.2 µM | -2.1 | -92.558 | 33.9 µM | -2.1 | -75.846 | 191 |  |  |
| CC(C)=CCN1CC[C@@]2(C)c3cc(O)ccc3C[C@@H]1[C@@H]2C.O=C(O)CCC(=O)O [(-)-Pentazocine succinate, reference compound] |  | -2.1 | 31.2 µM and 35.1 µM and 34.8 µM and 24.7 µM and 31 µM | -2.4 |  |  | 4 | 0 |  |  |  |
| CNC(=O)O/N=C/C(C)(C)S(C)(=O)=O [Aldoxycarb] |  | -2.1 |  | -1.1 and -2.1 |  |  |  |  |  |  |  |
| CCCCC(CC)CNC(=N)NC(=N)NCCCCCCNC(=N)NC(=N)NCC(CC)CCCC (stereo not shown) [Alexidine dihydrochloride] |  |  |  | -1.1 | -96.324 |  | 4 | 11.253 |  | 43.6 µM | 17.4 µM |
| Cl.O=C(c1ccc(F)cc1)C1CCN(CCn2c(=S)[nH]c3ccccc3c2=O)CC1 [Altanserin hydrochloride] |  | -2.1 | 13.8 µM | 4 | 0 |  | 4 | 0 |  |  |  |
| N=C(N)NC(=O)c1nc(Cl)c(N)nc1N [Amiloride hydrochloride] |  | -2.1 |  | 4 | -15.372 |  | 4 | 0 |  | 32.9 µM |  |
| Cc1cc(N)c2cc(NC(=O)Nc3ccc4nc(C)cc(N)c4c3)ccc2n1.Cl.Cl [Aminoquinuride dihydrochloride] |  |  | 38.9 µM and 30.9 µM | 4 | -15.256 |  | 4 | 0 |  |  |  |
| CN1CCCC(n2nc(Cc3ccc(Cl)cc3)c3ccccc3c2=O)CC1 (stereo not shown) [Azelastine hydrochloride] |  | -2.1 |  | -2.2 | -73.562 |  | 4 | 0 |  | 17.4 µM and 15.5 µM | 27.5 µM |
| COP(=S)(OC)SCn1nnc2ccccc2c1=O [Azinphos-methyl] |  | -2.1 and -1.1 |  |  |  |  | 4 |  |  |  |  |
| NC(=O)N=NC(N)=O [Azodicarbonamide] |  |  |  |  |  |  | 4 | 0 |  | 71 µM and 63.5 µM and 71.2 µM and 79.6 µM and 89.6 µM | 63.3 µM and 71.2 µM |
| CCN=C1C=CC(=C(c2ccc(N(CC)CC)cc2)c2ccc(N(CC)CC)cc2)c2ccccc21.Cl [Basic Blue 7] |  | -2.1 | 62.9 µM and 70.6 µM and 79.2 µM | -1.1 | -96.089 | 19.9 µM | 4 | 0 |  |  |  |
| CC(C)C[C@H]1C(=O)N2CCC[C@H]2[C@]2(O)O[C@](NC(=O)[C@@H]3C=C4c5cccc6[nH]c(Br)c(c56)C[C@H]4N(C)C3)(C(C)C)C(=O)N12 [Bromocriptine mesylate] |  | -1.1 |  | -1.1 | -70.597 |  | 4 | 0 |  | 5.38 µM and 2.7 µM |  |
| CCOP(=S)(OCC)Oc1cc(Cl)c(Br)cc1Cl [Bromophos-ethyl] |  |  |  | -3 | -50.884 |  | -1.1 | -91.453 |  |  |  |
| CNC(=O)O/N=C(\C)C(C)S(C)(=O)=O (stereo not shown) [Butoxycarboxim] |  | -2.1 |  | -2.2 | -49.747 |  | 4 | 0 |  | 355 µM and 398 µM and 447 µM | 794 µM |
| Cc1ccc(S(=O)(=O)Oc2ccc(N=Nc3ccc(-c4ccc(N=Nc5c(O)ccc6cc(S(=O)(=O)[O-])cc(S(=O)(=O)[O-])c56)c(C)c4)cc3C)cc2)cc1.[Na+].[Na+] [C.I. Acid Red 114] |  | 4 |  | -1.1 |  |  | 4 | 22.5 and 26.805 |  |  |  |

| Compound | AChE inhibition (result in words) [1] | CC-v2 (curve classes) [2] | IC50 ([2]; read-out: IC50) | CC-v2 (curve classes) [1] | Efficacy [1] | IC50 ([1]; read-out: IC50) | CC-v2 (curve classes) [3] | Efficacy [3] | IC50 [3] [µM] | IC50 ([2]; IC50 (uM)) | IC50 ([1]; IC50 (uM)) |
| --- | --- | --- | --- | --- | --- | --- | --- | --- | --- | --- | --- |
| Nc1c(/N=N/c2ccc(-c3ccc(/N=N/c4cc(S(=O)(=O)O)c5ccccc5c4N)cc3)cc2)cc(S(=O)(=O)O)c2ccccc12 [C.I. Direct Red 28] |  |  |  | -1.2 | -36.697 |  | 4 | 13.368 |  | 79.6 µM and 71 µM and 89.4 µM | 10 µM |
| O=C1c2c(O)ccc(Nc3ccc(CCO)cc3)c2C(=O)c2c([N+](=O)[O-])ccc(O)c21 [C.I. Disperse Blue 27] |  | -1.1 | 8.94 µM and 10 µM | -1.2 | -62.368 | 20 µM | 4 | 0 |  |  |  |
| COc1ccc2c(c1OC)CN1CCc3cc4c(cc3[C@@H]1C2)OCO4 [Canadine] |  | -1.1 and -2.1 |  | -1.1 | -74.441 |  | -3 | -45.32 |  | 8.71 µM and 11 µM and 9.77 µM |  |
| CCOP(=O)(OCC)OC(=CCl)c1ccc(Cl)cc1Cl [Chlorfenvinphos] |  | -1.1 |  | -1.1 | -95.584 |  | -1.1 | -96.159 |  |  |  |
| [H]/N=C(\N/C(=N/[H])NCCCCCCNC(=N)NC(=N)Nc1ccc(Cl)cc1)Nc1ccc(Cl)cc1 [Chlorhexidine dihydrochloride] |  |  |  | -1.1 | -89.988 |  | 4 | 14.978 |  | 72.3 µM and 64.4 µM | 22.9 µM |
| COP(=S)(OC)Oc1nc(Cl)c(Cl)cc1Cl [Chlorpyrifos-methyl] |  | 4 and -2.2 |  | 4 | 0 |  | 4 | 0 |  | 63.3 µM |  |
| CCOC(=O)COc1ccc2c(C)c(CCN(CC)CC)c(=O)oc2c1Cl.Cl [Cloricromen hydrochloride] |  | -2.1 | 13.8 µM and 15.5 µM | -2.1 | -70.529 | 15.5 µM | 4 | -27.609 |  |  |  |
| CNP(=O)(OC)Oc1ccc(C(C)(C)C)cc1Cl (stereo not shown) [Crufomate] |  | -2.1 |  | -2.2 | -70.92 |  | 4 | -16.11 |  | 71 µM and 39.9 µM and 63.3 µM | 79.6 µM |
| COP(=O)(OC)O/C(C)=C/C(=O)N(C)C [Dicrotophos] |  | -2.1 |  | -2.2 | -67.448 |  | 4 | 0 |  | 40.2 µM and 31.9 µM | 63.7 µM |
| CCCCCCCCCC[N+](C)(CCCCCCCCCC)CCC[Si](OC)(OC)OC.[Cl-] [Disiquonium chloride] |  | 4 |  | -3 | -65.382 | 79.6 µM | 4 | 0 |  |  |  |
| N#Cc1sc2c(=O)c3ccccc3c(=O)c=2sc1C#N [Dithianon] |  | -2.1 |  | 4 | -13.233 |  | 4 | 0 |  | 44.8 µM and 63.3 µM |  |
| CCCCCCCCCCCCc1ccc(S(=O)(=O)O)cc1 [Dodecylbenzenesulfonic acid] |  |  | 79.6 µM and 89.4 µM and 71 µM | -2.1 and -1.1 |  | 63.3 µM and 56.4 µM and 39.9 µM | 4 |  |  |  |  |
| CN(CCOc1ccc(NS(C)(=O)=O)cc1)CCc1ccc(NS(C)(=O)=O)cc1 [Dofetilide] |  |  |  |  | -14.56 |  |  | 0 |  | 17.4 µM |  |
| COc1cc2nc(N3CCN(C(=O)C4COc5ccccc5O4)CC3)nc(N)c2cc1OC (stereo not shown) [Doxazosin mesylate] |  |  |  | -2.2 | -37.943 |  | 4 | 0 |  |  |  |
| COP(N)(=O)SC (stereo not shown) [Methamidophos] |  | -2.1 |  | -2.1 |  |  |  |  |  |  |  |
| CCOP(=S)(OCC)Oc1cc(C)nc(N(CC)CC)n1 [Pirimiphos-ethyl] | did not show effects |  |  | 4 | -15.947 |  | 4 | -16.211 |  |  |  |
| CNC(=C[N+](=O)[O-])NCCSCc1ccc(CN(C)C)o1 [Ranitidine, reference compound] |  | -1.1 |  |  |  |  |  |  |  |  |  |
| CCOC(=O)CC(SP(=S)(OC)OC)C(=O)OCC (stereo not shown) [malathion] | not identified to inhibit AChE |  |  |  |  |  |  |  |  |  |  |

From PMC8041433 (Environmental Health Perspectives, 2021)
